Experimental data from patent US12421205B2, “GLP-1 receptor agonist” (HYUNDAI PHARM CO., LTD., priority 2019, dated 2025).
pEC50: −log10 of the molar value. Like-named read-outs stand apart in the source and are kept apart here.

Columns and labels:
human GLP-1 receptor = target: T1, human GLP-1 receptor (Homo sapiens, UniProt P43220); experiment: cAMP activity test (cAMP dynamic HTRF kit) in CHO-K1/GLP-1 receptor-expressing cells; assay type: cell-based
T1 construct: host or cells: CHO-K1
Experimental: The next day, the medium was removed, and a 50 uL of HBSS medium containing 0.1% BSA, 0.5 mM IBMX, and 5 mM HEPES was added to each well. […] The cAMP activity was measured according to the manufacturer's instructions using the cAMP dynamic HTRF kit (Cisbio, 62AM4PEC). After incubation, the medium was discarded, and the cells were lysed. cAMP-d2 and anti-cAMP cryptate conjugate were added thereto and reacted for 3 hours. […] Intracellular cAMP competes with cAMP-d2 for anti-cAMP cryptate, and the measured signal of fluorescence resonance energy transfer (FRET) is inversely proportional to intracellular cAMP.

hERG = target: T2, hERG (Homo sapiens, UniProt Q12809); experiment: hERG inhibition test (Predictor hERG Fluorescence Polarization assay kit); assay type: binding; conditions: probe kit Tracer (fluorescent hERG ligand), hERG % inhibition at 10 uM, relative to E-4031 and solvent control
T2 construct: purchased Invitrogen PV5365
Experimental: To measure the hERG (Human ether-a-go-go-related gene) channel inhibition rate of the compound according to the present invention, the following test was performed using a Predictor hERG Fluorescence Polarization assay kit (Invitrogen, PV5365).
Specifically, a test substance was dissolved in DMSO to prepare a 50 mM solution. A 4 mM solution was prepared by diluting the 50 mM solution with DMSO in a U bottom 96-well plate (SPL, 34096), and was then diluted 100-fold with a test buffer to prepare a 40 uM (4×) solution. The positive control E-4031 (3 mM) provided in the kit was diluted 25-fold with a test buffer to prepare a 120 uM solution) 5 uL of the diluted test substance solution was dispensed into a 384-well assay plate (corning, 3677). hERG Membrane (2×) and Tracer (4×) provided in the kit were respectively added at 10 uL and 5 uL, and then subjected to the reaction at room temperature for 2.5 hours. After completion of the reaction, fluorescence polarization (mP) was measured with a Multimode Plate Reader (Perkin-Elmer, Envision) (excitation wavelength of 531 nm, and emission wavelength 579 nm). The value of the percent inhibitory activity (% inhibition) at 10 uM of each test substance was calculated by the following equation, and the results are shown in Table 2: (% inhibition)=100−{(mP of the compound according to the present invention−E-4031 mP)/(mP of the solvent control−E-4031 mP)}×100

[1] = cAMP activity, CHO-K1/GLP-1 receptor-expressing cells, read-out: EC50

T1 sequence (P43220 24-463): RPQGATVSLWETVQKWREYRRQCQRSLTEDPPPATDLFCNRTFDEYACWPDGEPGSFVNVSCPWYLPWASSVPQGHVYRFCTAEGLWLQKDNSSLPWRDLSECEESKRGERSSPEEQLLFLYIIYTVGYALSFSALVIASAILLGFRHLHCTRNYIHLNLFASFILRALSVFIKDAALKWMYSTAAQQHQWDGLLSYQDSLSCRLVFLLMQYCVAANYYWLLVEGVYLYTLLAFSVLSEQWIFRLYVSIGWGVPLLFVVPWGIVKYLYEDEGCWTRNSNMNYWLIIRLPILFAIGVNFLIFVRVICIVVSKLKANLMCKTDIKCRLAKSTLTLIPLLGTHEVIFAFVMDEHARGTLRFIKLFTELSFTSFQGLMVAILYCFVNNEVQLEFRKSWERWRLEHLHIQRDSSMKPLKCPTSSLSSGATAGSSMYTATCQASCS
T2 sequence (Q12809 whole entry): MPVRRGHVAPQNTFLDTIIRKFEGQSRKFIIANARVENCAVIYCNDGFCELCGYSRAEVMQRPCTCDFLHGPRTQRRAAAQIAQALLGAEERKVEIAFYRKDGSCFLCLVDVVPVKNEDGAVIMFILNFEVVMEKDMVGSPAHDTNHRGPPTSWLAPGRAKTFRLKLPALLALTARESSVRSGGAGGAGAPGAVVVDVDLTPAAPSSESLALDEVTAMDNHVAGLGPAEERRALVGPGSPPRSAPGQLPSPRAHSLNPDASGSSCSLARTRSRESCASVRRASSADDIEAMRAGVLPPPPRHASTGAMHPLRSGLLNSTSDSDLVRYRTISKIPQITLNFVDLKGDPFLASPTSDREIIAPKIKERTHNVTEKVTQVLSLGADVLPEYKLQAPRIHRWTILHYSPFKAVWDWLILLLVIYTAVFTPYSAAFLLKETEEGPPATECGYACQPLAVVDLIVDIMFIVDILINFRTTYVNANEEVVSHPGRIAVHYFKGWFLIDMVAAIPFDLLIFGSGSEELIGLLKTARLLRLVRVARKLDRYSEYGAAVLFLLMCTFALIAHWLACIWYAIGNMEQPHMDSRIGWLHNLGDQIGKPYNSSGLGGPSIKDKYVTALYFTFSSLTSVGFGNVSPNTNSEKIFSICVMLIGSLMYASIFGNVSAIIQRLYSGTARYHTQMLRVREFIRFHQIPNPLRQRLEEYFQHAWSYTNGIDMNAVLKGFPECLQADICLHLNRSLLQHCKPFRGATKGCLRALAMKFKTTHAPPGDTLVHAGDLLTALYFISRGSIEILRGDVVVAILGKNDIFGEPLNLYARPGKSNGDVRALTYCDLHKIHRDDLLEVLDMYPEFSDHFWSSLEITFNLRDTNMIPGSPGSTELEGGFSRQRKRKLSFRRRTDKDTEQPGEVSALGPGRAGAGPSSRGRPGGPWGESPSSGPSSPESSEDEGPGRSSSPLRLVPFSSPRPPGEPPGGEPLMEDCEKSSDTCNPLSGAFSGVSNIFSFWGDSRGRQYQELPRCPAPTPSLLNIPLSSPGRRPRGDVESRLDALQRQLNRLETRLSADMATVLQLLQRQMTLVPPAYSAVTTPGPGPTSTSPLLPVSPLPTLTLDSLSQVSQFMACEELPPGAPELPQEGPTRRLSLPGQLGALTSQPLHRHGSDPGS

Row | SMILES | pEC50 (human GLP-1 receptor) | pEC50 (human GLP-1 receptor; [1]) | inhibition at 2.5 h, 10 µM (hERG) [%]
1 | COCCn1c(Cc2ccc(-c3cccc(OCc4ccc(C#N)cc4F)n3)c(F)c2)nc2ccc(C(=O)O)cc21 [Example 38, 2-(4-(6-(4-cyano-2-fluorobenzyloxy)pyridin-2-yl)-3-fluorobenzyl)-1-(2-methoxyethyl)-1H-benzo[d]imidazole-6-carboxylic acid] | 6.85 | – | 9.5
2 | COCCn1c(Cc2ccc(-c3cccc(OCc4ccc(Cl)cc4F)c3)cc2F)nc2ccc(C(=O)O)cc21 [Example 36, 2-((3′-(4-chloro-2-fluorobenzyloxy)-3-fluorobiphenyl-4-yl)methyl)-1-(2-methoxyethyl)-1H-benzo[d]imidazole-6-carboxylic acid] | – | 7.06 | -10.8
3 | COCCn1c(Cc2ccc(-c3cccc(OCc4ccc(C#N)cc4F)c3)c(F)c2)nc2ccc(C(=O)O)cc21 [Example 40, 2-((3′-(4-cyano-2-fluorobenzyloxy)-2-fluorobiphenyl-4-yl)methyl)-1-(2-methoxyethyl)-1H-benzo[d]imidazole-6-carboxylic acid] | – | 6.59 | 6.91
4 | N#Cc1ccc(COc2cccc(-c3ccc(Cc4nc5ccc(C(=O)O)cc5n4CC4CCCO4)cc3F)c2)c(F)c1 (centres unmarked) [Example 9, 2-((3′-(4-cyano-2-fluorobenzyloxy)-2-fluorobiphenyl-4-yl)methyl)-1-((tetrahydrofuran-2-yl)methyl)-1H-benzo[d]imidazole-6-carboxylic acid] | – | 7.12 | 0.48
5 | COCCn1c(Cc2ccc(-c3cccc(OCc4ccc(C#N)cc4F)n3)cc2)nc2ccc(C(=O)O)cc21 [Example 20, 2-(4-(6-(4-cyano-2-fluorobenzyloxy)pyridin-2-yl)benzyl)-1-(2-methoxyethyl)-1H-benzo[d]imidazole-6-carboxylic acid] | – | 6.62 | 6.19
6 | COc1cccc(COc2cccc(-c3ccc(Cc4nc5ccc(C(=O)O)cc5n4Cc4ccco4)nc3)c2)c1 [Example 23, 1-(furan-2-ylmethyl)-2-((5-(3-(3-methoxybenzyloxy)phenyl)pyridin-2-yl)methyl)-1H-benzo[d]imidazole-6-carboxylic acid] | – | 6.21 | -6.89
7 | COCCn1c(Cc2ccc(-c3cccc(OCc4ccc(Cl)cc4F)n3)c(C)c2)nc2ccc(C(=O)O)cc21 [Example 4, 2-(4-(6-(4-chloro-2-fluorobenzyloxy)pyridin-2-yl)-3-methylbenzyl)-1-(2-methoxyethyl)-1H-benzo[d]imidazole-6-carboxylic acid] | – | 6.70 | -2.87
8 | COCCn1c(Cc2ccc(-c3cccc(OCc4ccc(Cl)cc4F)n3)c(F)c2)nc2ccc(C(=O)O)cc21 [Example 6, 2-(4-(6-(4-chloro-2-fluorobenzyloxy)pyridin-2-yl)-3-fluorobenzyl)-1-(2-methoxyethyl)-1H-benzo[d]imidazole-6-carboxylic acid] | – | 7.60 | 22.8
9 | O=C(O)c1ccc2nc(Cc3ccc(-c4cccc(OCc5ccc(Cl)cc5F)c4)c(F)c3)n(Cc3cnco3)c2c1 [Example 33, 2-((3′-(4-chloro-2-fluorobenzyloxy)-2-fluorobiphenyl-4-yl)methyl)-1-(oxazol-5-ylmethyl)-1H-benzo[d]imidazole-6-carboxylic acid] | – | 7.22 | -9.08

Continued, in another order:

Row | pEC50 (human GLP-1 receptor) | pEC50 (human GLP-1 receptor; [1]) | SMILES | inhibition at 2.5 h, 10 µM (hERG) [%]
10 | – | 6.34 | O=C(O)c1ccc2nc(Cc3ccc(-c4cccc(OCc5nc6ccccc6s5)n4)c(F)c3)n(C[C@@H]3CCO3)c2c1 [Example 132, (S)-2-(4-(6-(benzo[d]thiazol-2-ylmethoxy)pyridin-2-yl)-3-fluorobenzyl)-1-(oxetan-2-ylmethyl)-1H-benzo[d]imidazole-6-carboxylic acid] | -7.11
11 | – | > 8.49 | N#Cc1ccc(COc2cccc(-c3cc(F)c(Cc4nc5ccc(C(=O)O)cc5n4CC4CCCO4)cc3F)n2)c(F)c1 (centres unmarked) [Example 71, 2-(4-(6-(4-cyano-2-fluorobenzyloxy)pyridin-2-yl)-2,5-difluorobenzyl)-1-((tetrahydrofuran-2-yl)methyl)-1H-benzo[d]imidazole-6-carboxylic acid] | -2.52
12 | – | > 8.49 | N#Cc1ccc(COc2cccc(-c3ccc(Cc4nc5ccc(C(=O)O)cc5n4CC4CCO4)cc3F)n2)c(F)c1 (centres unmarked) [Example 114, 2-(4-(6-((4-cyano-2-fluorobenzyl)oxy)pyridin-2-yl)-3-fluorobenzyl)-1-(oxetan-2-ylmethyl)-1H-benzo[d]imidazole-6-carboxylic acid] | -4.71
13 | – | 7.80 | O=C(O)c1ccc2nc(Cc3ccc(-c4cccc(OCc5ccc([N+](=O)[O-])cc5)n4)cc3F)n(CC3CCCO3)c2c1 (centres unmarked) [Example 88, 2-(2-fluoro-4-(6-(4-nitrobenzyloxy)pyridin-2-yl)benzyl)-1-((tetrahydrofuran-2-yl)methyl)-1H-benzo[d]imidazole-6-carboxylic acid] | 22.1
14 | – | 6.89 | N#Cc1ccc(COc2cccc(-c3ccn(Cc4nc5ccc(C(=O)O)cc5n4C[C@@H]4CCCO4)c(=O)c3)n2)c(F)c1 [Example 109, (S)-2-((4-(6-(4-cyano-2-fluorobenzyloxy)pyridin-2-yl)-2-oxopyridin-1(2H)-yl)methyl)-1-((tetrahydrofuran-2-yl)methyl)-1H-benzo[d]imidazole-6-carboxylic acid] | 6.49
15 | – | 7.51 | Cc1cc(-c2cccc(OCc3ccc(Cl)cc3F)n2)ccc1Cc1nc2ccc(C(=O)O)cc2n1CC1CCCO1 (centres unmarked) [Example 69, 2-(4-(6-(4-chloro-2-fluorobenzyloxy)pyridin-2-yl)-2-methylbenzyl)-1-((tetrahydrofuran-2-yl)methyl)-1H-benzo[d]imidazole-6-carboxylic acid] | -14.7
16 | – | 6.60 | O=C(O)c1ccc2nc(Cc3ccc(-c4cccc(OCc5ccc(Cl)cc5F)c4)c(F)c3)n(C[C@H]3CCCO3)c2c1 [Example 42, (R)-2-((3′-(4-chloro-2-fluorobenzyloxy)-2-fluorobiphenyl-4-yl)methyl)-1-((tetrahydrofuran-2-yl)methyl)-1H-benzo[d]imidazole-6-carboxylic acid] | -23.6
17 | – | 7.74 | N#Cc1ccc(COc2cccc(-c3ccc(Cc4nc5ccc(C(=O)O)cc5n4CC4CCCO4)c(F)c3)n2)cc1 (centres unmarked) [Example 87, 2-(4-(6-(4-cyanobenzyloxy)pyridin-2-yl)-2-fluorobenzyl)-1-((tetrahydrofuran-2-yl)methyl)-1H-benzo[d]imidazole-6-carboxylic acid] | 32.9
18 | – | 6.62 | COCCn1c(Cn2ccc(-c3cccc(OCc4ccc(C#N)cc4F)c3)cc2=O)nc2ccc(C(=O)O)cc21 [Example 104, 2-((4-(3-(4-cyano-2-fluorobenzyloxy)phenyl)-2-oxopyridin-1(2H)-yl)methyl)-1-(2-methoxyethyl)-1H-benzo[d]imidazole-6-carboxylic acid] | 8.69
19 | – | 7.85 | Cc1cc(-c2cccc(OCc3ccc(C#N)cc3F)n2)ccc1Cc1nc2ccc(C(=O)O)cc2n1C[C@@H]1CCO1 [Example 133, (S)-2-(4-(6-((4-cyano-2-fluorobenzyl)oxy)pyridin-2-yl)-2-methylbenzyl)-1-(oxetan-2-ylmethyl)-1H-benzo[d]imidazole-6-carboxylic acid] | 41
